Usually IC50 stands for the midpoint of a concentration-inhibition curve. A low value points to greater potency.

The subject of one experiment is Serratia marcescens. Briefly: Potentiation of imipenem induced antibacterial activity against Serratia marcescens CL5741 harbouring IMP-1 incubated for 18 to 22 hrs imipenem by spectrophotometer based analysis. Type of experiment: functional. The note with it: time 18-22 hrs.
Another experiment has as its system Escherichia coli. Briefly: Potentiation of imipenem induced antibacterial activity against Escherichia coli CLB30005 harbouring NDM-1 incubated for 18 to 22 hrs in presence of imipenem by spectrophotometer based analysis. The note with it: time 18-22 hrs. Type of experiment: functional.
Experiment [1] can be described thus: Inhibition of GST tagged VIM-1 (unknown origin) expressed in Escherichia coli BL21 Star (DE3) competent cells using CCF2-FA as substrate incubated for 2 hrs by fluorescence based analysis.
In another experiment the test system is Klebsiella pneumoniae. Briefly: Potentiation of imipenem induced antibacterial activity against Klebsiella pneumoniae IHMA599644 harbouring VIM-1 incubated for 18 to 22 hrs imipenem by spectrophotometer based analysis. The experiment is classed as functional. The note with it: time 18-22 hrs.
Experiment [2] can be described thus: Inhibition of GST tagged IMP-1 (unknown origin) expressed in Escherichia coli BL21 Star (DE3) competent cells using CCF2-FA as substrate incubated for 2 hrs by fluorescence based analysis.
Experiment [3] can be described thus: Inhibition of GST tagged NDM-1 (unknown origin) expressed in Escherichia coli BL21 Star (DE3) competent cells using CCF2-FA as substrate incubated for 2 hrs by fluorescence based analysis.
Experiment [4] has as its system Pseudomonas aeruginosa. Briefly: Potentiation of imipenem induced antibacterial activity against isogenic efflux deleted mutant Pseudomonas aeruginosa MB9799 harbouring IMP incubated for 18 to 22 hrs imipenem and beta lactamase inhibitor by spectrophotometer based analysis. The experiment is classed as functional. The note with it: time 18-22 hrs.
The subject of experiment [5] is Pseudomonas aeruginosa. The experiment in a line: Potentiation of imipenem induced antibacterial activity against isogenic efflux wild type Pseudomonas aeruginosa MB9798 harbouring IMP incubated for 18 to 22 hrs imipenem and beta lactamase inhibitor by spectrophotometer based analysis. Type of experiment: functional. The note with it: time 18-22 hrs.
The test system of experiment [6] is Pseudomonas aeruginosa. The experiment in a line: Efflux ratio of MITC95 for potentiation of imipenem induced antibacterial activity against isogenic efflux wild type Pseudomonas aeruginosa MB9798 harbouring IMP to MITC95 for potentiation of imipenem induced antibacterial activity against isogenic efflux deleted mutant Pseudomonas aeruginosa MB9799 harbouring IMP. The experiment is classed as functional.

Regarding `Cc1ccc(-c2cccc(S(N)(=O)=O)c2-c2nnn[nH]2)cc1`, the results for the MITC95 in the experiment with Serratia marcescens, in the experiment with Escherichia coli and in the experiment with Klebsiella pneumoniae were 14 µM, 1.5 µM and 127 µM, respectively. Besides, the half-maximal inhibitory concentration (IC50) in experiment [1] came to 57 nM; in experiment [2] it was 64 nM; in experiment [3], 3.7 nM.
Consider `NS(=O)(=O)c1c(Br)ccc(-c2ccc(C3CCNCC3)cc2)c1-c1nn[nH]n1`, for which the figures for the MITC95 in the experiment with Serratia marcescens, in the experiment with Escherichia coli and in the experiment with Klebsiella pneumoniae were 0.2 µM, 0.4 µM and 1.6 µM, respectively. Further, the half-maximal inhibitory concentration (IC50) in [1] was found to be 3 nM; in [2] it was 10 nM; in experiment [3], 11 nM.
For the compound `Cc1ccc(-c2ccc(C3CCNCC3)cc2)c(-c2nn[nH]n2)c1S(N)(=O)=O`, the MITC95 in the experiment with Serratia marcescens is 6 µM; with Escherichia coli, 3 µM; in the experiment on Klebsiella pneumoniae it was 25 µM. The IC50 in experiment [1] amounted to 28 nM; in experiment [2], 72 nM; in [3] it was 31 nM.
For `NC1CCC(N2CCC(c3ccc(-c4ccc(C(F)(F)F)c(S(N)(=O)=O)c4-c4nn[nH]n4)cc3)CC2)CC1` (configuration not stated), the MITC95 with Serratia marcescens was found to be 3.1 µM; in the experiment on Escherichia coli, 1.6 µM; with Klebsiella pneumoniae, 50 µM; in the experiment with Pseudomonas aeruginosa [4] it was 0.78 µM; in the experiment on Pseudomonas aeruginosa [5], 3.1 µM. Further, the IC50 in experiment [1] is 11 nM; in [2] it was 1.8 nM; in experiment [3], 6.4 nM. Moreover, in the experiment with Pseudomonas aeruginosa [6], the Ratio came out at 4.
Turning to `NC1(c2ccc(-c3ccc(C(F)(F)F)c(S(N)(=O)=O)c3-c3nn[nH]n3)cc2)CCNCC1`, the MITC95 with Serratia marcescens worked out at 0.3 µM; in the experiment on Escherichia coli, 0.4 µM; in the experiment on Klebsiella pneumoniae, 0.9 µM; with Pseudomonas aeruginosa [4], 0.39 µM; in the experiment on Pseudomonas aeruginosa [5], 25 µM. Further, the figures for the 50% inhibitory concentration (IC50) in [1], in experiment [2] and in [3] were 3 nM, 12.8 nM and 9.3 nM, respectively. In addition, the Ratio in the experiment with Pseudomonas aeruginosa [6] came to 64.
Take `N=C(N)N[C@H]1CC[C@H](c2ccc(C(F)(F)F)c(S(N)(=O)=O)c2-c2nn[nH]n2)CC1`: the MITC95 in the experiment with Serratia marcescens came out at 0.4 µM; in the experiment with Escherichia coli, 1.2 µM; in the experiment with Klebsiella pneumoniae, 1.2 µM; in the experiment with Pseudomonas aeruginosa [4] it was 0.78 µM; in the experiment with Pseudomonas aeruginosa [5], 200 µM. In addition, the IC50 is 0.7 nM in experiment [1], 25.5 nM in [2] and 17.5 nM in experiment [3]. In addition, the Ratio in the experiment with Pseudomonas aeruginosa [6] is given as 256.
In the case of `NS(=O)(=O)c1cccc(-c2ccc(C3CCNCC3)cc2)c1-c1nn[nH]n1`, the MITC95 in the experiment on Serratia marcescens is 9 µM; with Escherichia coli it was 3 µM; with Klebsiella pneumoniae it was 38 µM; in the experiment with Pseudomonas aeruginosa [4], 1.56 µM; in the experiment with Pseudomonas aeruginosa [5], 200 µM. For the same compound, the IC50 in experiment [1] was determined as 19 nM; in experiment [2], 34 nM; in experiment [3] it was 5 nM. For the same compound, the Ratio with Pseudomonas aeruginosa [6] is 128.
On to `NS(=O)(=O)c1c(Cl)ccc(-c2ccc(C3CCNCC3)cc2)c1-c1nn[nH]n1`, for which the MITC95 was found to be 0.4 µM with Serratia marcescens; 0.8 µM in the experiment with Escherichia coli; 1.6 µM in the experiment with Klebsiella pneumoniae; 0.39 µM with Pseudomonas aeruginosa [4]; 50 µM in the experiment on Pseudomonas aeruginosa [5]. Besides, the concentration for half-maximal inhibition (IC50) turned out to be 3 nM in experiment [1], 9 nM in experiment [2] and 6 nM in [3]. In addition, the Ratio in the experiment with Pseudomonas aeruginosa [6] is given as 128.
Turning to `NS(=O)(=O)c1c(C(F)(F)F)ccc(-c2ccc(C3CCNCC3)cc2)c1-c1nn[nH]n1`, the MITC95 in the experiment with Serratia marcescens is 0.2 µM; in the experiment on Escherichia coli, 0.7 µM; with Klebsiella pneumoniae, 1.9 µM; in the experiment with Pseudomonas aeruginosa [4], 0.78 µM; with Pseudomonas aeruginosa [5], 50 µM. Besides, the IC50 is 0.3 nM in experiment [1], 1.2 nM in [2] and 0.9 nM in [3]. Also, the Ratio with Pseudomonas aeruginosa [6] is 64.

These data come from ChEMBL document CHEMBL5518207, “Structure Guided Discovery of Novel Pan Metallo-β-Lactamase Inhibitors with Improved Gram-Negative Bacterial Cell Penetration” (J Med Chem, 2024).
